The numbers were not newly measured in publication PMC8513935, which cites them from elsewhere.

A short description of series [1]: experimental, compiled by the authors from the literature (the ESI cites the sources). As to conditions: 25 C.
Series [2] can be described thus: derived by the authors as gas->solvent minus gas->water (a hypothetical dry solvent; the ESI), not a two-phase measurement. As to conditions: 25 C.

Turning to `CCCCCCCCCCCCCCCCCCO`, the log K of transfer, gas to solvent in series [1] (Decan-1-ol) is 10.9 log10 K; in series [1] (Di-n-butyl ether), 10.6 log10 K; in series [1] (Diethyl Ether), 11 log10 K; in series [1] (Hexadecane), 9.66 log10 K; in series [1] (Hexan-1-ol) it was 10.9 log10 K; in series [1] (Octan-1-ol), 10.9 log10 K. Further, the log K of transfer, gas to solvent in series [1] (Propan-2-ol) is 10.9 log10 K; in series [1] (Water), 1.78 log10 K. Moreover, the log K of transfer, water to solvent was 9.12 log10 K in series [2] (Decan-1-ol); 8.85 log10 K in series [2] (Di-n-butyl ether); 9.2 log10 K in series [2] (Diethyl Ether); 7.88 log10 K in series [2] (Hexadecane); 9.16 log10 K in series [2] (Hexan-1-ol); 9.15 log10 K in series [2] (Octan-1-ol(dry)). Moreover, in series [2] (Propan-2-ol), the log K of transfer, water to solvent was 9.12 log10 K.

`c1ccc2cnccc2c1`: the log K of transfer, gas to solvent was 6.9 log10 K in series [1] (Chloroform), 5.59 log10 K in series [1] (Hexadecane) and 3.92 log10 K in series [1] (Water). Besides, the log K of transfer, water to solvent in series [2] (Chloroform) was 2.98 log10 K; in series [2] (Hexadecane), 1.67 log10 K.

In the case of `CCCCCCN`, the log K of transfer, gas to solvent is 3.65 log10 K in series [1] (Hexadecane) and 2.9 log10 K in series [1] (Water). Besides, the log K of transfer, water to solvent in series [2] (Hexadecane) is 0.755 log10 K.

On to `Cc1cncc(C)c1`, for which the log K of transfer, gas to solvent is 4.21 log10 K in series [1] (Hexadecane) and 3.55 log10 K in series [1] (Water). The log K of transfer, water to solvent in series [2] (Hexadecane) is 0.664 log10 K.

Regarding `OC12CC3CC(CC(C3)C1)C2`, the log K of transfer, gas to solvent in series [1] (Hexadecane) is 5.63 log10 K; in series [1] (Water), 5.15 log10 K. Also, in series [2] (Hexadecane), the log K of transfer, water to solvent was 0.484 log10 K.

As for `C=CCCCCCCC`, the figures for the log K of transfer, gas to solvent in series [1] (Hexadecane), in series [1] (Octan-1-ol) and in series [1] (Water) were 4.07 log10 K, 3.83 log10 K and -1.51 log10 K, respectively. The results for the log K of transfer, water to solvent in series [2] (Hexadecane) and in series [2] (Octan-1-ol(dry)) were 5.58 log10 K and 5.34 log10 K, respectively.
